From paper PMC11062899, “De novo development of small cyclic peptides that are orally bioavailable” (Nature Chemical Biology, 2023)
Several values for one entry are separate records, joined by “and”; a condition that tells them apart may be missing. Equal entries are not always repeated.

Key:
rat α-thrombin = biological target: T1, rat α-thrombin (Rattus norvegicus, UniProt P18292); assay: Protease inhibition, Ki for rat α-thrombin (fluorogenic substrate Z-Gly-Gly-Arg-AMC); format: biochemical; details: replicates R1-R3
T1 construct: rat α-thrombin (Molecular Innovations) were used at final concentrations of 2 nM and 3 nM; purchased Molecular Innovations
Summary of the method: (§1)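 Ki derived through Cheng–Prusoff from IC50s (four-parameter logistic fit) against activity of peptide-free controls. Product fluorescence was read every 3 min over 30 min at 25 °C, substrate Z-Gly-Gly-Arg-AMC at 50 μM. Enzyme was 2 nM human or 3 nM rat α-thrombin, pH 7.4 buffer.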

[1] = Metabolic stability in rat liver microsomes (RLMs); details: rat, microsomes
porcine pepsin = biological target: T2, porcine pepsin (Sus scrofa, UniProt P00791); assay: Peptide stability in simulated gastric fluid (SGF); format: in vitro ADME; details: for SGF stability, Residual peptide Average / SGF stability, Residual peptide: after 8 h vs 0 h (TIC); for SGF stability, Residual peptide Average: average of R1-R3; for SGF stability, Residual peptide: single replicates R1-R3; for remaining at 8 h: simulated gi fluid, 37 °C, pH 1.2, read-out: Proteolytic stability: SGF (8 h) % remaining
T2 construct: 0.32 g of porcine pepsin (Sigma-Aldrich, P7125) was dissolved under gentle agitation; purchased Sigma-Aldrich P7125
Summary of the method: (§2)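 Peptide from a 1 mM DMSO stock was added to fluid pre-warmed at 37 °C. SGF was pH 1.2 NaCl with porcine pepsin (0.32 g per 100 ml), and SIF was pH 6.8 potassium phosphate with porcine pancreatin (1 g per 100 ml). Supernatant peptide was quantified by LC–MS, with residual expressed as T1/T0.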

human α-thrombin = human α-thrombin (Homo sapiens, UniProt P00734); assay: Protease inhibition, Ki for human α-thrombin (fluorogenic substrate Z-Gly-Gly-Arg-AMC); format: biochemical; details: replicates R1-R3
Summary of the method: as §1

[2] = Peptide stability in simulated intestinal fluid (SIF); format: in vitro ADME, porcine; details: simulated gi fluid; 8 h, 37 °C, pH 6.8; read-out: Proteolytic stability: SIF (8 h) % remaining
Summary of the method: as §2

porcine pancreatin = assay: as above; format: in vitro ADME; details: after 8 h vs 0 h (TIC); for SIF stability, Residual peptide Average: average of R1-R3; for SIF stability, Residual peptide: single replicates R1-R3
Summary of the method: as §2

[3] = Passive artificial membrane permeability (PAMPA); details: for PAMPA permeability: % permeability: 50 μM, 12–18 h, acceptor concentration relative to equilibrium; for Papp at 50 μM / Permeability% Average / Permeability% R1 / Permeability% R3: PAMPA; for Papp at 50 μM: pH 7.4; for Permeability% Average: average of R1-R3; for Permeability% R1: replicate R1; for Permeability% R1 / Permeability% R3: TIC of top well sample relative to sample at theoretical equilibrium; for Permeability% R3: replicate R3
[4] = peptide 1.33E+02 uM, slope of proteolytic substrate cleavage over time
[5] = CL (ul/min/mg protein) R1, RLM CL, replicate R1
[6] = CL (ul/min/mg protein) R2, RLM CL, replicate R2
[7] = CL (ul/min/mg protein) R3, RLM CL, replicate R3
[8] = Half Life (min) R1, RLM metabolic stability, replicate R1, 0-60 min
[9] = Half Life (min) R2, RLM metabolic stability, replicate R2, 0-60 min
[10] = Half Life (min) R3, RLM metabolic stability, replicate R3, 0-60 min
[11] = Metabolic stability: Half life T1/2 (min), RLMs, mean and SD, three measurements
[12] = Metabolic stability: RLM CL (ul/min/mg), RLMs, mean and SD, three measurements

T2 sequence (P00791 60-385): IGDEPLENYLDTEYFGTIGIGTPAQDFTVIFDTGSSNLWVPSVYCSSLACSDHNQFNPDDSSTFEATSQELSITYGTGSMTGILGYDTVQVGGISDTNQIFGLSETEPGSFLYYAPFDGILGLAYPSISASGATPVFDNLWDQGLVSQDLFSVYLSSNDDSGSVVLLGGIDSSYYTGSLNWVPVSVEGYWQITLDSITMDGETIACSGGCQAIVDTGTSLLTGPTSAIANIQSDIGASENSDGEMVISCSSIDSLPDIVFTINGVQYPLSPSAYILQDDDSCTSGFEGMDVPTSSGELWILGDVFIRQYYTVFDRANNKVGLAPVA

## O=C1CCSCc2ccc(cc2)CSCCNC(=O)[C@H](CNC(=O)c2ccc(Cl)s2)NC(=O)[C@H](Cc2ccccn2)N1 [compound 21]
Rat α-thrombin; [4]
  Rat alpha thrombin inhibition, slope normalized to DMSO: 2.7 and 0.9 and 1.3
Rat α-thrombin; peptide 1.67E+01 uM
  Rat alpha thrombin inhibition, slope normalized to DMSO: 3.2 and 2.7 and 2.4
Rat α-thrombin; peptide 2.08E+00 uM
  Rat alpha thrombin inhibition, slope normalized to DMSO: 15.0 and 14.2 (2×)
Rat α-thrombin; peptide 3.33E+01 uM
  Rat alpha thrombin inhibition, slope normalized to DMSO: 3.0 and 2.9 and 1.6
Rat α-thrombin; peptide 4.17E+00 uM
  Rat alpha thrombin inhibition, slope normalized to DMSO: 8.4 and 7.9 and 15.6
Rat α-thrombin; peptide 6.67E+01 uM
  Rat alpha thrombin inhibition, slope normalized to DMSO: 2.7 and 2.1 and 0.8
Rat α-thrombin; peptide 8.33E+00 uM
  Rat alpha thrombin inhibition, slope normalized to DMSO: 4.8 and 3.7 and 3.3
[1]; [5]
  microsomal CLint: 102 µL/min/mg
[1]; [6]
  microsomal CLint: 60.2 µL/min/mg
[1]; [7]
  microsomal CLint: 85 µL/min/mg
[1]; [8]
  half-life: 13.6 min
[1]; [9]
  half-life: 23 min
[1]; [10]
  half-life: 16.3 min
[1]; [11]
  half-life: 17.6 ± 4 min
[1]; [12]
  microsomal CLint: 82 ± 17 µL/min/mg
Porcine pepsin
  SGF stability, Residual peptide Average: 96.77
  SGF stability, Residual peptide: 95.02 and 96.82 and 98.46
  remaining at 8 h: 97 ± 2%
Human α-thrombin; peptide 1.02E-03 uM
  Human alpha thrombin inhibition, slope normalized to DMSO: 103.5 and 98.1 and 102.6
Human α-thrombin; peptide 1.04E+00 uM
  Human alpha thrombin inhibition, slope normalized to DMSO: 51.0 and 46.3 and 53.8
Human α-thrombin; peptide 1.27E-04 uM
  Human alpha thrombin inhibition, slope normalized to DMSO: 101.6 (2×) and 101.3
Human α-thrombin; peptide 1.30E-01 uM
  Human alpha thrombin inhibition, slope normalized to DMSO: 84.8 and 85.3 and 87.8
Human α-thrombin; [4]
  Human alpha thrombin inhibition, slope normalized to DMSO: 2.9 and 4.3 and 7.1
Human α-thrombin; peptide 1.63E-02 uM
  Human alpha thrombin inhibition, slope normalized to DMSO: 94.6 and 91.7 and 97.3
Human α-thrombin; peptide 1.67E+01 uM
  Human alpha thrombin inhibition, slope normalized to DMSO: 6.9 and 8.0 and 8.2
Human α-thrombin; peptide 2.03E-03 uM
  Human alpha thrombin inhibition, slope normalized to DMSO: 83.6 and 95.2 and 99.1
Human α-thrombin; peptide 2.08E+00 uM
  Human alpha thrombin inhibition, slope normalized to DMSO: 39.4 and 34.7 and 41.2
Human α-thrombin; peptide 2.54E-04 uM
  Human alpha thrombin inhibition, slope normalized to DMSO: 100.6 and 99.2 and 101.0
Human α-thrombin; peptide 2.60E-01 uM
  Human alpha thrombin inhibition, slope normalized to DMSO: 69.7 and 83.0 and 22.1
Human α-thrombin; peptide 3.18E-05 uM
  Human alpha thrombin inhibition, slope normalized to DMSO: 102.2 and 99.2 and 102.0
Human α-thrombin; peptide 3.26E-02 uM
  Human alpha thrombin inhibition, slope normalized to DMSO: 94.2 and 94.0 and 90.4
Human α-thrombin; peptide 3.33E+01 uM
  Human alpha thrombin inhibition, slope normalized to DMSO: 5.8 (2×) and 6.2
Human α-thrombin; peptide 4.07E-03 uM
  Human alpha thrombin inhibition, slope normalized to DMSO: 90.8 and 94.4 and 95.3
Human α-thrombin; peptide 4.17E+00 uM
  Human alpha thrombin inhibition, slope normalized to DMSO: 22.8 and 22.7 and 20.6
Human α-thrombin; peptide 5.09E-04 uM
  Human alpha thrombin inhibition, slope normalized to DMSO: 101.7 and 100.4 and 99.5
Human α-thrombin; peptide 5.21E-01 uM
  Human alpha thrombin inhibition, slope normalized to DMSO: 67.4 and 67.9 and 63.6
Human α-thrombin; peptide 6.36E-05 uM
  Human alpha thrombin inhibition, slope normalized to DMSO: 101.4 and 100.0 and 102.5
Human α-thrombin; peptide 6.51E-02 uM
  Human alpha thrombin inhibition, slope normalized to DMSO: 98.0 and 95.1 and 90.8
Human α-thrombin; peptide 6.67E+01 uM
  Human alpha thrombin inhibition, slope normalized to DMSO: 5.7 and 4.5 and 9.4
Human α-thrombin; peptide 8.14E-03 uM
  Human alpha thrombin inhibition, slope normalized to DMSO: 81.7 and 101.4 and 94.1
Human α-thrombin; peptide 8.33E+00 uM
  Human alpha thrombin inhibition, slope normalized to DMSO: 13.3 and 14.1 and 15.9
[2]
  remaining at 8 h: 73 ± 14%
Porcine pancreatin
  SIF stability, Residual peptide Average: 72.44
  SIF stability, Residual peptide: 71.05 and 59.57 and 86.70
[3]
  PAMPA permeability: % permeability: 17 ± 5%
  Papp at 50 μM: 1.2 ×10⁻⁶ cm/s
  Permeability% Average: 17.0%
  Permeability% R1: 13.02%
  Permeability% R3: 21.96%

## O=C1CCSC/C=C/CSCCNC(=O)[C@H](CNC(=O)c2ccc(Cl)s2)NC(=O)[C@H](Cc2ccccn2)N1 [compound 22]
Rat α-thrombin; [4]
  Rat alpha thrombin inhibition, slope normalized to DMSO: 2.8 and 3.3 and 1.9
Rat α-thrombin; peptide 1.67E+01 uM
  Rat alpha thrombin inhibition, slope normalized to DMSO: 7.6 and 6.1 and 7.2
Rat α-thrombin; peptide 2.08E+00 uM
  Rat alpha thrombin inhibition, slope normalized to DMSO: 33.9 and 32.6 and 33.7
Rat α-thrombin; peptide 3.33E+01 uM
  Rat alpha thrombin inhibition, slope normalized to DMSO: 4.8 and 4.2 and 4.5
Rat α-thrombin; peptide 4.17E+00 uM
  Rat alpha thrombin inhibition, slope normalized to DMSO: 21.3 and 20.5 and 20.2
Rat α-thrombin; peptide 6.67E+01 uM
  Rat alpha thrombin inhibition, slope normalized to DMSO: 3.3 and 2.6 and 2.7
Rat α-thrombin; peptide 8.33E+00 uM
  Rat alpha thrombin inhibition, slope normalized to DMSO: 13.5 and 12.2 and 12.7
[1]; [5]
  microsomal CLint: 266 µL/min/mg
[1]; [6]
  microsomal CLint: 255 µL/min/mg
[1]; [7]
  microsomal CLint: 248 µL/min/mg
[1]; [8]
  half-life: 5.21 min
[1]; [9]
  half-life: 5.44 min
[1]; [10]
  half-life: 5.58 min
[1]; [11]
  half-life: 5.4 ± 0.2 min
[1]; [12]
  microsomal CLint: 260 ± 10 µL/min/mg
Porcine pepsin
  SGF stability, Residual peptide Average: 96.43
  SGF stability, Residual peptide: 98.71 and 95.02 and 95.57
  remaining at 8 h: 96 ± 2%
Human α-thrombin; peptide 1.02E-03 uM
  Human alpha thrombin inhibition, slope normalized to DMSO: 102.8 and 97.7 and 93.9
Human α-thrombin; peptide 1.04E+00 uM
  Human alpha thrombin inhibition, slope normalized to DMSO: 77.5 and 70.0 and 74.3
Human α-thrombin; peptide 1.27E-04 uM
  Human alpha thrombin inhibition, slope normalized to DMSO: 100.4 and 110.4 and 99.0
Human α-thrombin; peptide 1.30E-01 uM
  Human alpha thrombin inhibition, slope normalized to DMSO: 97.9 and 99.8 and 91.2
Human α-thrombin; [4]
  Human alpha thrombin inhibition, slope normalized to DMSO: 5.1 and 4.3 and 6.3
Human α-thrombin; peptide 1.63E-02 uM
  Human alpha thrombin inhibition, slope normalized to DMSO: 96.1 and 101.1 and 95.8
Human α-thrombin; peptide 1.67E+01 uM
  Human alpha thrombin inhibition, slope normalized to DMSO: 20.9 and 21.1 and 17.2
Human α-thrombin; peptide 2.03E-03 uM
  Human alpha thrombin inhibition, slope normalized to DMSO: 100.4 and 98.0 and 100.5
Human α-thrombin; peptide 2.08E+00 uM
  Human alpha thrombin inhibition, slope normalized to DMSO: 66.4 and 63.2 and 62.8
Human α-thrombin; peptide 2.54E-04 uM
  Human alpha thrombin inhibition, slope normalized to DMSO: 104.5 and 97.0 and 96.4
Human α-thrombin; peptide 2.60E-01 uM
  Human alpha thrombin inhibition, slope normalized to DMSO: 95.1 and 92.0 and 90.3
Human α-thrombin; peptide 3.18E-05 uM
  Human alpha thrombin inhibition, slope normalized to DMSO: 99.7 and 98.9 and 101.2
Human α-thrombin; peptide 3.26E-02 uM
  Human alpha thrombin inhibition, slope normalized to DMSO: 99.6 and 98.9 and 96.4
Human α-thrombin; peptide 3.33E+01 uM
  Human alpha thrombin inhibition, slope normalized to DMSO: 10.4 and 11.3 and 12.9
Human α-thrombin; peptide 4.07E-03 uM
  Human alpha thrombin inhibition, slope normalized to DMSO: 102.1 and 98.1 and 100.5
Human α-thrombin; peptide 4.17E+00 uM
  Human alpha thrombin inhibition, slope normalized to DMSO: 49.4 and 48.2 and 42.7
Human α-thrombin; peptide 5.09E-04 uM
  Human alpha thrombin inhibition, slope normalized to DMSO: 105.6 and 97.1 and 101.8
Human α-thrombin; peptide 5.21E-01 uM
  Human alpha thrombin inhibition, slope normalized to DMSO: 84.4 and 88.3 and 83.4
Human α-thrombin; peptide 6.36E-05 uM
  Human alpha thrombin inhibition, slope normalized to DMSO: 104.9 and 95.6
Human α-thrombin; peptide 6.51E-02 uM
  Human alpha thrombin inhibition, slope normalized to DMSO: 99.3 and 101.7 and 95.4
Human α-thrombin; peptide 6.67E+01 uM
  Human alpha thrombin inhibition, slope normalized to DMSO: 5.8 and 5.7 and 8.8
Human α-thrombin; peptide 8.14E-03 uM
  Human alpha thrombin inhibition, slope normalized to DMSO: 101.9 and 98.8 and 103.6
Human α-thrombin; peptide 8.33E+00 uM
  Human alpha thrombin inhibition, slope normalized to DMSO: 31.4 and 24.4 and 30.5
[2]
  remaining at 8 h: 96 ± 9%
Porcine pancreatin
  SIF stability, Residual peptide Average: 96.16
  SIF stability, Residual peptide: 94.79 and 87.84 and 105.86
[3]
  PAMPA permeability: % permeability: 16 ± 7%
  Papp at 50 μM: 1.05 ×10⁻⁶ cm/s
  Permeability% Average: 15.5%
  Permeability% R1: 9.36%
  Permeability% R3: 23.67%
